Results filed as inconclusive are left out. Activity calls are given as the source filed them.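 How the source made its calls: active means compound lowering the normal-ribosome reporter at least twice as much as the humanized-ribosome reporter, growth loss under a set limit; inconclusive means no clear call, values can overlap the other calls; inactive means the rest.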
What was measured:
Experiment in all cases: E. coli growth inhibition, wild-type GFP versus h24 humanized RFP strain, dose response, h24 mutant RFP vs wild-type GFP, cherry-pick (AID 977628);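 further: wild-type GFP and h24 humanized RFP strains co-cultured 1 to 1 per well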
[1] = tested on: E. coli WT GFP strain growth, fluorescence, 24 h
[2] = tested on: E. coli h24 humanized mutant RFP strain growth, fluorescence, 24 h
[3] = tested on: E. coli mixed WT/h24 culture total growth, OD600, 24 h

SMILES | AC50 [1] | AC50 [2] [µM] | AC50 [3] [µM]
Cc1oc(-c2ccc(-c3ccccc3)cc2)nc1CN(C)C1CCOC1 (configuration not stated) | > 100 µM (inactive) | > 100 | 49.9
COc1ccccc1C(=O)Nc1cccc2cccnc12 | > 100 µM (inactive) | 10.2 | > 100
CCOc1ccc(NC(=O)CN(C)CC(=O)Nc2ccc(Br)cc2F)cc1OCC | > 100 µM (inactive) | > 100 | > 100
C=CCNc1ccc2c(c1)OC[C@H](CC(C)C)NS2(=O)=O | > 100 µM (inactive) | > 100 | > 100
Cc1nnc2sc(SCC(=O)Nc3ccc(Br)cc3)nn2c1=O | > 100 µM (inactive) | > 100 | > 100
c1ccc(-c2nc(-c3cccnc3)cs2)cc1 | > 100 µM (inactive) | > 100 | > 100
COc1ccc(NC(=O)c2cccnc2SC)cc1S(=O)(=O)N1CCCCC1 | > 100 µM (inactive) | > 100 | > 100
O=C1c2cccc(OCC(=O)N3CCCc4ccccc43)c2CCN1Cc1cccnc1 | > 100 µM (inactive) | 9.06 | 45.8
CNC(=O)c1ccsc1NC(=O)c1ccc2c(c1)CCCC2 | > 100 µM (inactive) | 6.81 | > 100
